From patent US8884030B2, “Inhibitors of Flaviviridae viruses” (priority 2010, dated 2014)

System: human hepatoma Huh-7 cell line harboring a HCV replicon
Experiment: HCV replicon assay (inhibition of viral replication, luciferase)
Format: cell-based
Conditions: Hepatitis C virus, 72 h; 2 μM; Huh-7 HCV replicon cells, 3 days incubation; inhibition of viral replication; read-out: % inhibition at 2 μM
Method: The anti-HCV activity of the compounds of this invention was tested in a human hepatoma Huh-7 cell line harboring a HCV replicon. The assay comprised the following steps:
Step 1: Compound Preparation and Serial Dilution.
Serial dilution was performed in 100% DMSO in a 384-well plate. A solution containing a compound at 225-fold concentration of the starting final serial dilution concentration was prepared in 100% DMSO and 15 uL added to the pre-specified wells in column 3 or 13 of a polypropylene 384-well plate. The rest of the 384-well plate was filled with 10 uL 100% DMSO except for columns 23 and 24, where 10 uL of 500 uM a HCV protease inhibitor (ITMN-191) in 100% DMSO was added. The HCV protease inhibitor was used a control of 100% inhibition of HCV replication. The plate was then placed on a Biomek FX Workstation to start the serial dilution. The serial dilution was performed for ten cycles of 3-fold dilution from column 3 to 12 or from column 13 to 22.
Step 2: Cell Culture Plate Preparation and Compound Addition
To each well of a black polypropylene 384-well plate, 90 μL of cell media containing 1600 suspended Huh-7 HCV replicon cells was added with a Biotek uFlow Workstation. A volume of 0.4 μL of the compound solution was transferred from the serial dilution plate to the cell culture plate on a Biomek FX Workstation. The DMSO concentration in the final assay condition was 0.44%. The plates were incubated for 3 days at 37° C. with 5% CO2 and 85% humidity.
Step 3: Detection of Cytotoxicity and Inhibition of Viral Replication
a) Assessment of cytotoxicity: The media in the 384-well cell culture plate was aspirated with a Biotek EL405 plate-washer. A volume of 50 μL of a solution containing 400 nM Calcein AM in 100% PBS was added to each well of the plate with a Biotek uFlow Workstation. The plate was incubated for 30 minutes at room temperature before the fluorescence signal ([…]) was measured with a Perkin Elmer Envision Plate Reader.
b) Assessment of inhibition of viral replication: The calcein-PBS solution in the 384-well cell culture plate was aspirated with a Biotek EL405 plate-washer. A volume of 20 μL of Dual-Glo luciferase buffer (Promega, Dual-Glo Luciferase Assay Reagent, cat. #E298B) was added to each well of the plate with a Biotek uFlow Workstation. The plate was incubated for 10 minutes at room temperature. A volume of 20 μL of a solution containing 1:100 mixture of Dual-Glo Stop & Glo substrate(Promega, Dual-Glo Luciferase Assay Reagent, cat. #E313B) and Dual-Glo Stop & Glo buffer (Promega, Dual-Glo Luciferase Assay Reagent, cat. #E314B) was then added to each well of the plate with a Biotek uFlow Workstation. The plate was incubated at room temperature for 10 minutes before the luminescence signal was measured with a Perkin Elmer Envision Plate Reader.
The percent cytotoxicity was determined by calcein AM conversion to fluorescent product. The average fluorescent signal from the DMSO control wells were defined as 100% nontoxic. The individual fluorescent signal from testing compound treated well was divided by the average signal from DMSO control wells and then multiplied by 100% to get the percent viability. The percent anti-HCV replication activity was determined by the luminescence signal from the testing well compared to DMSO controls wells. The background signal was determined by the average luminescence signal from the HCV protease inhibitor treated wells and was subtracted from the signal from the testing wells as well as the DMSO control wells. Following 3-fold serial dilutions, the EC50 and CC50 values were calculated by fitting % inhibition at each concentration to the following equation: % inhibition=100%[(EC50/[l])^b+1]
Where b is Hill's coefficient. See, for reference, Hill, A. V., The Possible Effects of the Aggregation of the Molecules of Hæmoglobin on its Dissociation Curves, J. Physiol. 40: iv-vii. (1910). […]

| SMILES | inhibition at 2 µM [%] |
| --- | --- |
| CC(C)(C)C#Cc1cc(N(C(=O)[C@H]2CC[C@H](C)CC2)C2CCC(NC(=O)O[C@@H]3CCCNC3)CC2)c(C(=O)O)s1 (stereo partly drawn) [Compound 47, 5-(3,3-dimethyl-but-1-ynyl)-3-{(4-trans-methyl-cyclohexanecarbonyl)-[4-(piperidin-3-(R)-yloxycarbonylamino)-cyclohexyl]-amino}-thiophene-2-carboxylic acid] | 99.9 |
| CC(C)(C)C#Cc1cc(N(C(=O)[C@H]2CC[C@H](C)CC2)C2CCC(NC(=O)O[C@@H]3CCOC3)CC2)c(C(=O)O)s1 (stereo partly drawn) [Compound 48, 5-(3,3-dimethyl-but-1-ynyl)-3-{(4-trans-methyl-cyclohexanecarbonyl)-[4-(tetrahydro-furan-3-(R)-yloxycarbonylamino)-cyclohexyl]-amino}-thiophene-2-carboxylic acid] | 100 |
| CC(C)(C)C#Cc1cc(N(C(=O)[C@H]2CC[C@H](C)CC2)C2CCC(NC(=O)O[C@H]3CNC(=O)C3)CC2)c(C(=O)O)s1 (stereo partly drawn) [Compound 49, 5-(3,3-dimethyl-but-1-ynyl)-3-{(4-trans-methyl-cyclohexanecarbonyl)-[4-(5-oxo-pyrrolidin-3-(S)-yloxycarbonylamino)-cyclohexyl]-amino}-thiophene-2-carboxylic acid] | 99.2 |
| CC(C)(C)C#Cc1cc(N(C(=O)[C@H]2CC[C@H](C)CC2)C2CCC(NC(=O)O[C@@H]3CCNC3=O)CC2)c(C(=O)O)s1 (stereo partly drawn) [Compound 50, 5-(3,3-dimethyl-but-1-ynyl)-3-{(4-trans-methyl-cyclohexanecarbonyl)-[4-(2-oxo-pyrrolidin-3-(R)-yloxycarbonylamino)-cyclohexyl]-amino}-thiophene-2-carboxylic acid] | 99.9 |
| CC(C)(C)C#Cc1cc(N(C(=O)[C@H]2CC[C@H](C)CC2)C2CCN(C(=O)O[C@@H]3CCCN(C(=O)OC(C)(C)C)C3)CC2)c(C(=O)O)s1 [Compound 51, Boc protected 4-[[2-carboxy-5-(3,3-dimethyl-but-1-ynyl)-thiophen-3-yl]-(4-trans-methyl-cyclohexanecarbonyl)-amino]-piperidine-1-carboxylic acid piperidin-3-(R)-yl ester] | 85.5 |
| CC(C)(C)C#Cc1cc(N(C(=O)[C@H]2CC[C@H](C)CC2)C2CCN(C(=O)O[C@@H]3CCCNC3)CC2)c(C(=O)O)s1 [Compound 52, 4-[[2-carboxy-5-(3,3-dimethyl-but-1-ynyl)-thiophen-3-yl]-(4-trans-methyl-cyclohexanecarbonyl)-amino]-piperidine-1-carboxylic acid piperidin-3-(R)-yl ester] | 93.5 |
| CC(C)(C)C#Cc1cc(N(C(=O)[C@H]2CC[C@H](C)CC2)C2CCN(C(=O)O[C@@H]3CCOC3)CC2)c(C(=O)O)s1 [Compound 53, 4-[[2-carboxy-5-(3,3-dimethyl-but-1-ynyl)-thiophen-3-yl]-(4-trans-methyl-cyclohexanecarbonyl)-amino]-piperidine-1-carboxylic acid tetrahydro-furan-3-(R)-yl ester] | 99.9 |
| CC(C)(C)C#Cc1cc(N(C(=O)[C@H]2CC[C@H](C)CC2)C2CCN(C(=O)OC3CCOCC3)CC2)c(C(=O)O)s1 [Compound 54, 4-[[2-carboxy-5-(3,3-dimethyl-but-1-ynyl)-thiophen-3-yl]-(4-trans-methyl-cyclohexanecarbonyl)-amino]-piperidine-1-carboxylic acid tetrahydro-pyran-4-yl ester] | 99.8 |
| CC(C)(C)C#Cc1cc(N(C(=O)[C@H]2CC[C@H](C)CC2)C2CCN(C(=O)O[C@H]3CNC(=O)C3)CC2)c(C(=O)O)s1 [Compound 55, 4-[[2-carboxy-5-(3,3-dimethyl-but-1-ynyl)-thiophen-3-yl]-(4-trans-methyl-cyclohexanecarbonyl)-amino]-piperidine-1-carboxylic acid 5-oxo-pyrrolidin-3-(R)-yl ester] | 87.9 |
| CC(C)(C)C#Cc1cc(N(C(=O)[C@H]2CC[C@H](C)CC2)C2CCN(C(=O)O[C@@H]3CNC(=O)C3)CC2)c(C(=O)O)s1 [Compound 56, 4-[[2-carboxy-5-(3,3-dimethyl-but-1-ynyl)-thiophen-3-yl]-(4-trans-methyl-cyclohexanecarbonyl)-amino]-piperidine-1-carboxylic acid 5-oxo-pyrrolidin-3-(S)-yl ester] | 92.8 |
| CC(C)(C)C#Cc1cc(N(C(=O)[C@H]2CC[C@H](C)CC2)C2CCN(C(=O)O[C@H]3CCNC3=O)CC2)c(C(=O)O)s1 [Compound 57, 4-[[2-carboxy-5-(3,3-dimethyl-but-1-ynyl)-thiophen-3-yl]-(4-methyl-cyclohexanecarbonyl)-amino]-piperidine-1-carboxylic acid 2-oxo-pyrrolidin-3-(S)-yl ester] | 78.2 |
| C[C@@H](CCNC(=O)O[C@H]1CO[C@H]2OCC[C@H]21)N(c1cc(C#CC(C)(C)C)sc1C(=O)O)C(=O)[C@H]1CC[C@H](C)CC1 [Compound 64, 5-(3,3-Dimethyl-but-1-ynyl)-3-[[3-(hexahydro-furo[2,3-b]furan-3-yloxycarbonylamino)-1-(S)-methyl-propyl]-(trans-4-methyl-cyclohexanecarbonyl)-amino]-thiophene-2-carboxylic acid] | 100 |
| C[C@@H](CCNC(=O)O[C@@H]1CCOC1)N(c1cc(C#CC(C)(C)C)sc1C(=O)O)C(=O)[C@H]1CC[C@H](C)CC1 [Compound 65, 5-(3,3-dimethyl-but-1-ynyl)-3-[[trans-4-methyl-cyclohexanecarbonyl)-[1-(S)-methyl-3-(tetrahydrofuran-3-yloxycarbonylamino)-propyl]-amino]-thiophene-2-carboxylic acid] | 99.9 |
| CC(C)(C)C#Cc1cc(N(C(=O)[C@H]2CC[C@H](C)CC2)C2CCC(NC(=O)O[C@H]3CO[C@H]4OCC[C@H]43)CC2)c(C(=O)O)s1 (stereo partly drawn) [Compound 66, 5-(3,3-Dimethyl-but-ynyl)-3-[[4-(hexahydro-furo[2,3-b]furan-3-yloxycarbonylamino)-cyclohexyl]-(trans-4-methyl-cyclohexanecarbonyl)-amino]-thiophene-2-carboxylic acid] | 99.9 |
| CC(C)(C)C#Cc1cc(N(C(=O)[C@H]2CC[C@H](C)CC2)[C@H]2CCN(C(=O)OC3(C)CCNC3)C2)c(C(=O)O)s1 (stereo partly drawn) [Compound 68, 3-(S)-[[2-Carboxy-5-(3,3-dimethyl-but-1-ynyl)-thiophen-3-yl]-(trans-4-methylcyclohexanecarbonyl)-amino]-pyrrolidine-1-carbocylic-acid-3-methyl-pyrrolidin-3-yl-ester] | 98.5 |
| CC(C)(C)C#Cc1cc(N(C(=O)[C@H]2CC[C@H](C)CC2)[C@H]2CCN(C(=O)OC3(C)CN(C(=O)OC(C)(C)C)C3)C2)c(C(=O)O)s1 [Compound 69, 3-[[2-carboxy-5-(3,3-dimethyl-but-1-ynyl)-thiophen-3-yl]-(trans-4-methyl-cyclohexanecarbonyl)-3-(S)-amino]-pyrrolidine-1-carboxylic acid 1-tert-butoxycarbonyl-3-methyl-azetidin-3-yl ester] | 99.5 |
| CC(C)(C)C#Cc1cc(N(C(=O)[C@H]2CC[C@H](C)CC2)[C@H]2CCN(C(=O)OC3CCS(=O)(=O)C3)C2)c(C(=O)O)s1 (stereo partly drawn) [Compound 70, 3-[[2-carboxy-5-(3,3-dimethyl-but-1-ynyl)-thiophene-3-yl]-(trans-4-methylcyclohexanecarbonyl)-3-(S)-amino]-pyrrolidine-1-carboxylic acid 1,1-dioxo-tetrahydro-1λ^6-thiophene-3-yl ester] | 99.1 |
| CC(C)(C)C#Cc1cc(N(C(=O)[C@H]2CC[C@H](C)CC2)C2CCN(C(=O)OC3(C)CCN(C(=O)OC(C)(C)C)C3)CC2)c(C(=O)O)s1 (stereo partly drawn) [Compound 71] | 95.1 |
